Test results: EPA's ToxValDB 9.5 (doi:10.2903/j.efsa.2021.6237)

Assays:
Tagia sp. = settings: chronic/long-term; duration: 56 days; reproduction
Apis mellifera = settings: acute, mortality
Daphnia magna = settings: chronic/long-term; duration: 21 days; reproduction
Colinus virginianus = settings: acute; oral; mortality
Oncorhynchus mykiss = settings: chronic/long-term; duration: 60 days; other
Lepomis macrochirus = settings: acute; duration: 96 hours; mortality
Anas platyrhynchos = settings: short-term; oral; feed; mortality
Canidae = settings: subchronic; duration: 90 days; oral; Dog Other; clinical chemistry

COP(=S)(OC)SCN1C(=O)c2ccccc2C1=O [Phosmet]
LD50 (Rattus norvegicus; acute, oral, mortality): 113 mg/kg-day | NOAEL (Rattus norvegicus; chronic, duration: 2 years, clinical chemistry): 1.8 mg/kg-day | NOAEL (Rattus norvegicus; developmental, development): 10 mg/kg-day | NOAEL (Rattus norvegicus; reproduction developmental): 1 mg/kg-day | NOAEL (Rattus norvegicus; subchronic, duration: 90 days, oral, clinical chemistry): 1.88 mg/kg-day | NOEC (Tagia sp.): 2.96 mg/kg | LD50 (Apis mellifera; dermal): 0.22 µg/piece | LD50 (Apis mellifera; oral, unspecified): 0.302 µg/piece | NOEC (Daphnia magna): 0.78 µg/L | LD50 (Colinus virginianus): 56.2 mg/kg-day | NOEC (Oncorhynchus mykiss): 3.2 µg/L | LD50 (Lepomis macrochirus): 19.7 µg/L | LD50 (Anas platyrhynchos): > 2320 mg/kg-day | NOAEL (Canidae): 1.88 mg/kg-day
